{
  "source": "patent US20120100204A1",
  "about": "“TGF-Beta Stimulating Agent Compositions and Combinations” (TCP INNOVATIONS LTD, priority 2007, published 2012)",
  "key": {"tgfb1 mRNA": {"system": "tgfb1 mRNA", "test": "tgfb1 mRNA level by quantitative PCR in human aortic vascular smooth muscle cells", "type": "cell-based", "details": "24 hrs", "description": "(1995) Cardiovasc. Res. 29:848-55). […] The cells were then incubated for either 24 hrs or 72 hrs depending on the experiment. All treatment conditions were established in triplicate. The level of mRNA for tgfb1, tgfb2 and tgfb3 were estimated by quantitative PCR. The media was removed and RNA was carefully prepared using the Ambion RNAqueous4PCR kit (Ambion#1914) in accordance with the manufacturer's instructions. The purity of the RNA and the quantity was assessed spectrophotometrically. […] This analysis results in both a gel-like image as well as electrophoretic data. Indications of RNA degradation are: (a) decreasing ratio of ribosomal bands (b) additional peaks bellow the ribosomal bands (c) Decrease in overall RNA signal (d) shift towards shorter fragments. All the mRNA samples used in the experiments presented here passed this RNA quality control step. Next, the RNA was converted to cDNA using the ABI High-Capacity cDNA Archive Kit, in accordance with manufacturer's instructions. […] Samples were vortexed to ensure thorough mixing. cDNA was aliquoted into ABI 384 well plates using a multi-channel pipette, 4.5 μl of sample into each well. Samples were assayed in triplicate (that is, nine determinations in total were made for each condition, being three separate assays on each of three replicate culture wells). The assay mix and Universal Master Mix were prepared and aliquoted across the 384 well plates 5.5 μl in each well, using a single channel pipette. The final composition of each reaction (10 μl) being: […] Universal Master Mix=5 μl; cDNA=4.5 μl. The plates were then heat sealed using Abgene clear seal strong plastic heat seals, and then cycled and scanned using the ABI 9700HT under the following conditions: 95° C. for 10 minutes to activate the AmpliTaq GOLD, then 40 cycles of: 95° C. for 15 sec (Denaturation), 60° C. for 60 […]). […] Quantitative PCR was performed using several primer/probe sets. […] We used both commercially available primer/probe sets (ABI Taqman pre-validated assays), using both available sets in the ABI database for tgfb1 and tgfb2, as well as the single available set for tgfb3. In addition, we used our own manual design probe/primer set for each of tgfb1, tgfb2 and tgfb3. For normalisation, we used TATA-binding protein (TBP) as the primary normalisation standard, with GAPDH as an alternative for confirmation, using ABI Taqman pre-validated probe/primer sets. […] Neither TBP nor GAPDH mRNA levels are affected by TGF-beta and are therefore equally suitable, however TBP was selected as the primary normalisation standard because the absolute level of mRNA in most cell types is similar to that of the TGF-beta isoforms, resulting in lower errors on calculating the ratio, and improving the power of the experiment. In all quantitative PCR experiments, several additional controls were included: firstly, a control for each sample is run with no reverse transcription to ensure the mRNA sample is not contaminated with genomic DNA (although the manual design probe/primer sets were all selected to cross an exon/exon boundary, ensuring no detectable amplicon is produced from genomic DNA templates). […] This control ensures that the results for the unknown samples are obtained in the linear range of the amplification process, and are therefore truly quantitative. Failure of either control led to the repeat of the entire experiment. Typically, the half maximal signal was obtained after 20-30 amplification cycles. […]"}, "apoE-deficient mice": {"system": "apoE-deficient mice", "test": "vascular lipid lesion formation at the aortic root, Oil Red O staining", "type": "in vivo", "details": "for Intimal lipid lesion area / Intimal:media area ratio / Lipid lesion area / Total intimal area: Aspirin 30 mg/kg/day, mean ± SD; for reduction of vascular lipid lesion area: Tamoxifen 1 mg/kg/day p.o, vs control", "source_text": "(§1) Adult male apoE-deficient mice, back-crossed onto a C57B16 background for at least five generations, were randomised into groups of eight animals at 12 weeks of age, such that each group had similar average body weight. […] The amount of food eaten and the body weight of each mouse was monitored daily for the first week, and once per week thereafter. After 12 weeks of treatment, the mice were sacrificed by CO2 asphyxiation, and heart & lung blocks were excised, embedded in Cryo-M-bed (Bright Instruments, UK) without fixation and snap frozen in liquid nitrogen.\n(§2) Sections were then prepared from the aortic root according to the Paigen Strategy (a defined sequence of cutting sections which allow reproducible comparison between animals; see for example Grainger et al. (1995) Nature Med. 1:1067-72 and the references therein). 4 μm crysosections were cut using a motordriven cryotome (Bright Instruments) and collected onto poly-L-lysine coated glass microscope slides, then fixed in ice-cold acetone for 90 secs, allowed to air dry and stored at −20° C. until analysed.\nThe extent of vascular lipid lesion formation was assessed by Oil Red O staining, with a Fast Green counterstain, a standard histological procedure well known in the art. Briefly, five sections (selected according to the Paigen strategy) from each animal were passed through graded alcohol solutions, then stained in Oil Red O for 12 minutes, washed several times and then counterstained by dipping in Fast Green for 5-10 secs, and then dip washed in several changes of clean water. After air drying, an appropriate mountant was applied (simple glycerol-based moutants are most appropriate for this task), followed by a coverslip using acrylic varnish surrounding the coverslip to hold it in place. Slides were then analysed using a simple inverted microscope (no phase contrast; 10× objective; Olympus AX series), fitted with a digital camera to capture images of the entire aortic wall. The images were subsequently processed, blind to the treatment status of the animal, using Openlab image analysis software (Improvision, UK) running on an Apple Macintosh computer. On each image, the user delineated the external elastic lamina, internal elastic lamina and the luminal surface of the vessel wall, and the software reported the total intimal area, the intimal:medial area ratio, the total neutral lipid area and the intimal lipid area. The values from each image were summed (except for intimal:media area ratio, which were averaged), and then the values from each slide were summed (or averaged, as above) to yield a value for each parameter for each animal. […]\nAdult male apoE-deficient mice were treated, in groups of 8, with fish oil (Seven Seas, UK), aspirin or both agents simultaneously from 12 weeks of age until 24 weeks of age, exactly as described in Example 2.\nMice were sacrificed and heart & lung blocks prepared and processed exactly as described in Example 2. Sections were prepared in accordance with the Paigen Strategy, as in example 2. The extent of lipid lesion formation was assessed by Oil Red 0 staining with Fast Green counterstain, exactly as in example 2."}, "TGF-beta1": {"system": "TGF-beta1", "test": "TGF-beta1 protein in the blood vessel wall, quantitative immunofluoresence", "type": "in vivo", "details": "apoE mice; for TGF-b1 staining: Aspirin 30 mg/kg/day, mean ± SD", "source_text": "as §1, §2"}, "[1]": {"details": "12 to 24 weeks of age, Fish oils 100 mg/kg/day"}, "[2]": {"details": "12 weeks in chow, TMX 1 mg/kg/day"}},
  "data": [
    {"smiles": "CC(=O)Oc1ccccc1C(=O)O", "note": "[Aspirin, acetylsalicylic acid]", "values": [
      {"measurement": "Level of mRNA, estimated by qPCR: tgfb1", "setting": "tgfb1 mRNA; 10 μM A", "value": "1.01 ± 0.04", "unit": "fold-change"},
      {"measurement": "Level of mRNA, estimated by qPCR: tgfb1", "setting": "tgfb1 mRNA; 33 μM A", "value": "0.93 ± 0.11", "unit": "fold-change"},
      {"measurement": "Level of mRNA, estimated by qPCR: tgfb1", "setting": "tgfb1 mRNA; 100 μM A", "value": "1.06 ± 0.08", "unit": "fold-change"},
      {"measurement": "effect on the mRNA levels of any of the three isoforms of TGF-beta", "setting": "tgfb1 mRNA; any concentration tested (up to 100 μM)", "value": "no statistically significant effect"},
      {"measurement": "Intimal lipid lesion area", "setting": "apoE-deficient mice; [1]", "value": "31,006 ± 7,176 μm2"},
      {"measurement": "Intimal:media area ratio", "setting": "apoE-deficient mice; [1]", "value": "62 ± 9", "unit": "%"},
      {"measurement": "Lipid lesion area", "setting": "apoE-deficient mice; [1]", "value": "35,860 ± 8,091 μm2"},
      {"measurement": "Total intimal area", "setting": "apoE-deficient mice; [1]", "value": "65,209 ± 6.712 μm2"},
      {"measurement": "Intimal lipid lesion area", "setting": "apoE-deficient mice; [2]", "value": "31,006 ± 7,176 μm^2"},
      {"measurement": "Intimal:media area ratio", "setting": "apoE-deficient mice; [2]", "value": "62 ± 9", "unit": "%"},
      {"measurement": "Lipid lesion area", "setting": "apoE-deficient mice; [2]", "value": "35,860 ± 8,091 μm^2"},
      {"measurement": "Total intimal area", "setting": "apoE-deficient mice; [2]", "value": "65,209 ± 6,712 μm^2"},
      {"measurement": "effect on total intimal area and intimal:medial area ratio", "setting": "apoE-deficient mice; Example 2", "value": "did not affect"},
      {"measurement": "reduction of vascular lipid lesion area", "setting": "apoE-deficient mice; aspirin 30 mg/kg/day p.o", "value": 6, "unit": "%"},
      {"measurement": "effect on any measure of vascular lipid lesion area or plaque size", "setting": "apoE-deficient mice; administered separately, fish oil 100 mg/kg/day p.o, aspirin 30 mg/kg/day p.o", "value": "no statistically significant effect"},
      {"measurement": "TGF-b1 staining", "setting": "TGF-beta1; 12 weeks, TMX 1 mg/kg/day", "value": "65 ± 11", "unit": "AU"},
      {"measurement": "level of TGF-beta1 in the blood vessel wall (in words)", "setting": "TGF-beta1; Example 2", "value": "no effect"},
      {"measurement": "level of TGF-beta1 in the blood vessel wall (in words)", "setting": "TGF-beta1; Example 3", "value": "no effect"},
      {"measurement": "TGF-b1 staining", "setting": "TGF-beta1; Fish oils 100 mg/kg/day", "value": "65 ± 11", "unit": "AU"}
    ]},
    {"smiles": "CC/C(=C(\\c1ccccc1)c1ccc(OCCN(C)C)cc1)c1ccccc1", "note": "[Tamoxifen]", "values": [
      {"measurement": "Level of mRNA, estimated by qPCR: tgfb1", "setting": "tgfb1 mRNA; 3.3 μM T, normalised to TBP, vs vehicle", "value": "0.95 ± 0.16", "unit": "fold-change"},
      {"measurement": "Level of mRNA, estimated by qPCR: tgfb1", "setting": "tgfb1 mRNA; 10 μM T", "value": "1.27 ± 0.09", "unit": "fold-change"},
      {"measurement": "Level of mRNA, estimated by qPCR: tgfb1", "setting": "tgfb1 mRNA; 33 μM T, listed as T", "value": "1.41 ± 0.08", "unit": "fold-change"},
      {"measurement": "Level of mRNA, estimated by qPCR: tgfb1", "setting": "tgfb1 mRNA; 33 μM T, listed as TMX", "value": "approximately 1.4 fold-change"},
      {"measurement": "doses that significantly increased tgfb1 mRNA", "setting": "tgfb1 mRNA", "value": "≥ 10", "unit": "µM"},
      {"measurement": "Intimal lipid lesion area", "setting": "apoE-deficient mice; [2]", "value": "9,393 ± 2,221 * μm^2"},
      {"measurement": "Lipid lesion area", "setting": "apoE-deficient mice; [2]", "value": "10,794 ± 2,820 * μm^2"},
      {"measurement": "Total intimal area", "setting": "apoE-deficient mice; [2]", "value": "64,428 ± 4,294 μm^2"},
      {"measurement": "reduction of vascular lipid lesion area", "setting": "apoE-deficient mice; aspirin 30 mg/kg/day p.o", "value": 72, "unit": "%"},
      {"measurement": "TGF-b1 staining", "setting": "TGF-beta1; 12 weeks, TMX 1 mg/kg/day", "value": "94 ± 9", "unit": "AU"},
      {"measurement": "level of TGF-beta1 in the blood vessel wall (in words)", "setting": "TGF-beta1; Example 2", "value": "increased"}
    ]}
  ]
}
